Reference: PubChem BioAssay AID1963852 (Molecular Pharmacology Branch, DTP, NCI, 2024)
“And” between values parts separate entries of the source, which are not always exact repeats. Equal entries are not always repeated.

Tested on: 282377-053-R-J1-PDC complex spheroid viability
Experiment: Anticancer human tumor 282377-053-R-J1-PDC patient-derived colon adenocarcinoma cell line growth inhibition [POLQ]
Conditions: for viability, T/C: stronger effect = lower value
Method: Multicellular complex tumor spheroid response to Polymerase (POL) inhibitors (novobiocin, ART-558, RP6685) in combination with a variety of drugs and investigational agents in selected tumor cell lines
The POL inhibitors (novobiocin, ART-558, and RP6685) were evaluated both individually and in combination with standard of care and investigational anticancer small molecules within a complex spheroid model of solid tumors. . Complex spheroids include a stromal component modeled by human endothelial cells (HUVEC) and fibroblasts modeled by human mesenchymal stem cells (MSCs). The concentration ranges selected for each drug and investigational agent were based upon clinically achievable concentrations if the clinical Cmax of the agent was known.
Compounds. The drugs and investigational agents: novobiocin (NSC847541), ART-558 (NSC835418), RP-6685 (NSC848927), peposertib (NSC802822), ceralasertib (NSC780249), elimusertib (NSC800525), camonsertib (NSC841442), AZD-1390 (NSC803789), olaparib (NSC753686), talazoparib (NSC767125), rucaparib (NSC756644), sotorasib (NSC818433), MRTX-1133 (NSC836407), SN-38 (NSC673596), topotecan (NSC609699), epotoside (NSC141540), doxorubicin (NSC123127), gemcitabine (NSC613327), 5-fluorouracil (NSC19893), paclitaxel (NSC125973), vemurafenib (NSC761431), MSA-2 (NSC828583), SN-011 (NSC837082), adavosertib (NSC754352), prexasertib (NSC758257), carboplatin (NSC241240) and oxaliplatin (NSC266046), were obtained from the National Cancer Institute (NCI) Developmental Therapeutics Program Chemical Repository (21). The FDA-approved anticancer drug set is available from the Developmental Therapeutics Program at https://dtp.cancer.gov/organization/dscb/obtaining/. […] The stock solutions were prepared in dimethyl sulfoxide (DMSO, Sigma-Aldrich, St. Louis, MO, cat. D2650), except for the platinum compounds which were prepared in saline (Quality Biological, Gaithersburg, MD, cat. 114-055-101), at 800-fold the tested concentration and stored at -70 degrees C prior to their use. All drugs and investigational agents were tested over a range starting from a high concentration at or near the clinical Cmax and decreasing in half-log increments. If the clinical Cmax for an agent had not been determined, the highest concentration tested was 10 microM, except for SN-38, which was tested at a high concentration of 1 microM.
Cell Culture. All cells were maintained in an incubator at 37 degrees C and 5% CO2 with 95% humidity. The PDC lines were cultured according to standard operating procedures established by the NCI PDMR (https://pdmr.cancer.gov). Table 3 of the manuscript, lists the cell lines along with the number of the three cell types plated to form the mct-spheroids and media for tumor cell growth. After thawing, all PDC lines, except 997537-175-T-J1-PDC and 415267-285-R-J2-PDC, were cultured in Matrigel-coated flasks prepared with a working solution of 1X Ham's F-12 nutrient mix, without supplementation (Thermo Fisher Scientific, cat. 11765054), 100 U/mL penicillin-streptomycin (Thermo Fisher Scientific, cat. 15140122), and 2.5% Matrigel (Corning Inc., Corning, NY, cat. 354248) for the first three passages. The two PDC lines 997537-175-T-J1-PDC and 415267-285-R-J2-PDC were cultured on uncoated flasks. The 857933-349-R-J2-PDC line was cultured in 6C/Colon 1B media containing advanced DMEM/F-12 (Thermo Fisher Scientific, cat. 12634028), 10 mM HEPES (Thermo Fisher Scientific, cat. 15630080), 1X GlutaMAX supplement (Thermo Fisher Scientific, cat. 35050061), 0.1 mg/mL primocin (InvivoGen, San Diego, CA, cat. ant-pm-2), 10% defined fetal bovine serum, heat inactivated (HyClone Laboratories Inc., Logan, UT, cat. SH30070.03HI), 50% L-WRN conditioned media (ATCC, cat. CRL-3276), 1.25 mM N-Acetyl-L-cysteine (Sigma-Aldrich, cat. A9165), 10 mM nicotinamide (Sigma-Aldrich, cat. N0636), 1X B-27 supplement (Thermo Fisher Scientific, cat. 17504044), 1X N-2 supplement (Thermo Fisher Scientific, cat. […]
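Also: spheroids exposed to compounds for seven days.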
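For viability, T/C in this document: 100% = DMSO vehicle control viability.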

`CC1COCCN1c1cc(C2(S(C)(=N)=O)CC2)nc(-c2ccnc3[nH]ccc23)n1` (stereo not drawn) + Nc1ccc(C#CCN(C(=O)Cc2ncc(C(F)(F)F)cc2C(F)(F)F)c2ccc(F)cc2)nn1 was tested, and the IC50 (curve of first compound, second compound 0.0316 µM) was over 10 µM, the IC50 (curve of first compound, second compound 0.1 µM) was over 10 µM and the IC50 (curve of first compound, second compound 0.316 µM) was over 10 µM. For the same compound, the IC50 (curve of first compound, second compound 1 µM) was over 10 µM, the IC50 (curve of first compound, second compound 3.16 µM) was over 10 µM and the IC50 (curve of first compound, second compound 10 µM) was over 10 µM. It also gave a viability, T/C (second compound 0.0316 µM, first compound 0.0316 µM) of 117%, a viability, T/C (second compound 0.0316 µM, first compound 0.1 µM) of 96.5% and a viability, T/C (second compound 0.0316 µM, first compound 0.316 µM) of 90.7%. It also gave a viability, T/C (second compound 0.0316 µM, first compound 1 µM) of 86.2%, a viability, T/C (second compound 0.0316 µM, first compound 3.16 µM) of 73.6% and a viability, T/C (second compound 0.0316 µM, first compound 10 µM) of 54.6%. The viability, T/C (second compound 0.1 µM, first compound 0.0316 µM) was 99.2%, the viability, T/C (second compound 0.1 µM, first compound 0.1 µM) was 106% and the viability, T/C (second compound 0.1 µM, first compound 0.316 µM) was 93.1%. For the same compound, the viability, T/C (second compound 0.1 µM, first compound 1 µM) was 79.8%, the viability, T/C (second compound 0.1 µM, first compound 3.16 µM) was 78.7% and the viability, T/C (second compound 0.1 µM, first compound 10 µM) was 58.5%. The viability, T/C (second compound 0.316 µM, first compound 0.0316 µM) was 116%, the viability, T/C (second compound 0.316 µM, first compound 0.1 µM) was 101% and the viability, T/C (second compound 0.316 µM, first compound 0.316 µM) was 93.1%. The viability, T/C (second compound 0.316 µM, first compound 1 µM) was 81.5%, the viability, T/C (second compound 0.316 µM, first compound 3.16 µM) was 80% and the viability, T/C (second compound 0.316 µM, first compound 10 µM) was 59.7%. For the same compound, the viability, T/C (second compound 1 µM, first compound 0.0316 µM) was 112%, the viability, T/C (second compound 1 µM, first compound 0.1 µM) was 90.9% and the viability, T/C (second compound 1 µM, first compound 0.316 µM) was 84.7%. It also gave a viability, T/C (second compound 1 µM, first compound 1 µM) of 91.7%, a viability, T/C (second compound 1 µM, first compound 3.16 µM) of 75.1% and a viability, T/C (second compound 1 µM, first compound 10 µM) of 70.3%. The viability, T/C (second compound 3.16 µM, first compound 0.0316 µM) was 116%, the viability, T/C (second compound 3.16 µM, first compound 0.1 µM) was 101% and the viability, T/C (second compound 3.16 µM, first compound 0.316 µM) was 91.4%. The viability, T/C (second compound 3.16 µM, first compound 1 µM) was 92.4%, the viability, T/C (second compound 3.16 µM, first compound 3.16 µM) was 76.1% and the viability, T/C (second compound 3.16 µM, first compound 10 µM) was 57.5%. It also gave a viability, T/C (second compound 10 µM, first compound 0.0316 µM) of 96.5%, a viability, T/C (second compound 10 µM, first compound 0.1 µM) of 119% and a viability, T/C (second compound 10 µM, first compound 0.316 µM) of 106%. It also gave a viability, T/C (second compound 10 µM, first compound 1 µM) of 95%, a viability, T/C (second compound 10 µM, first compound 3.16 µM) of 93% and a viability, T/C (second compound 10 µM, first compound 10 µM) of 72.4%.

In the case of `O=c1[nH]cc(F)c(=O)[nH]1`, the viability, T/C (compound 0.0316 µM) is reported as 91.8% and 103% and 97.7%, the viability, T/C (compound 0.1 µM) is reported as 109% and 108% and 95% and the viability, T/C (compound 0.316 µM) is reported as 86.7% and 107% and 114%. The viability, T/C (compound 1 µM) was 96.3% and 108% and 78.9%, the viability, T/C (compound 3.16 µM) was 68.2% and 98.1% and 75.9% and the viability, T/C (compound 10 µM) was 71% and 93.2% and 71.8%. The IC50 (curve of compound) was over 10 µM.

For `O=C(Nc1ccc(O)c(NS(=O)(=O)c2ccc(F)cc2)c1)c1ccc(-c2ccccc2)cc1`, the viability, T/C (compound 0.0316 µM) was 110% and 91.2% and 91.8%, the viability, T/C (compound 0.1 µM) was 98.8% and 86.6% and 102% and the viability, T/C (compound 0.316 µM) was 108% and 92.9% and 112%. The viability, T/C (compound 1 µM) was 113% and 95.5% and 102%, the viability, T/C (compound 3.16 µM) was 116% and 112% and 121% and the viability, T/C (compound 10 µM) was 116% (2×) and 109%. It also gave an IC50 (curve of compound) of over 10 µM.

In the case of `C=CCn1c(=O)c2cnc(Nc3ccc(N4CCN(C)CC4)cc3)nc2n1-c1cccc(C(C)(C)O)n1`, the viability, T/C (compound 0.00316 µM) is reported as 107% (2×) and 111%, the viability, T/C (compound 0.01 µM) is reported as 119% and 95.2% and 85.9% and the viability, T/C (compound 0.0316 µM) is reported as 98% and 116% and 91.7%. For the same compound, the viability, T/C (compound 0.1 µM) was 103% and 95.6% and 93.7%, the viability, T/C (compound 0.316 µM) was 109% and 85.2% and 82.7% and the viability, T/C (compound 1 µM) was 81.5% and 87.5% and 68.1%. For the same compound, the IC50 (curve of compound) was over 1 µM.
